# Assay results as given in patent US9512107B2, “Therapeutically active compositions and their methods of use” (Agios Pharmaceuticals, Inc., priority 2012, dated 2016).
# Numbering of substitutions follows the chain as printed.
# Key:
# [1] = target: T1, IDH2 R140Q (Homo sapiens, UniProt P48735, R140Q); test: IDH2 R140Q enzymatic assay (cofactor depletion, similar format); format: biochemical; conditions: read-out: Enz R140Q
# T1 sequence (P48735 40-452 R140Q): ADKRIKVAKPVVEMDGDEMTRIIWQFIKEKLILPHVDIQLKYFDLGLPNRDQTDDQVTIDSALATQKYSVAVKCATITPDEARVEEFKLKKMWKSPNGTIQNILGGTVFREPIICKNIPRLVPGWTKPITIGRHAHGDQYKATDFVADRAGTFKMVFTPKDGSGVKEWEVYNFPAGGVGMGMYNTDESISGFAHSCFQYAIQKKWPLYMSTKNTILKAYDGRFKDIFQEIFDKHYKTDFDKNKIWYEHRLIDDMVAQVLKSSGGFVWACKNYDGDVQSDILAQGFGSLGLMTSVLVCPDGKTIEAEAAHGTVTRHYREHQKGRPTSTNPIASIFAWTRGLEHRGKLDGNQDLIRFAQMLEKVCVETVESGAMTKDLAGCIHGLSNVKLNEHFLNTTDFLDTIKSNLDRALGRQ
# [2] = test system: U87MG pLVX-IDH2 R140Q-neo cells; test: U87MG pLVX-IDH2 R140Q-neo cell based assay, 2-HG in media by LC-MS at 48 hours; conditions: Homo sapiens, U-87 MG
# How it was run: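 2-HG secreted into the medium was measured by LC-MS after 48 h of compound treatment (0.2% DMSO final) of U87MG pLVX-IDH2 R140Q-neo cells in DMEM/10% FBS. The same wells were assayed at 72 h by CellTiter-Glo luminescence for effects on growth.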
# [3] = target: T2, IDH2 R172K (Homo sapiens, UniProt P48735, R172K); test: IDH2 R172K enzymatic assay (NADPH cofactor depletion, diaphorase/resazurin readout); format: biochemical; conditions: read-out: Enz R172K
# T2 sequence (P48735 40-452 R172K): T1 sequence (P48735 40-452 R140Q) with Q101R, R133K
# How it was run: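 Residual NADPH is read out as resorufin fluorescence after quenching with 36 μg/ml diaphorase and 60 μM resazurin in stop mix. The stop follows a 1 h room-temperature reaction started by a substrate mix of NADPH (50 μM) and α-KG (6.3 mM), with compound preincubated with enzyme for 1 h beforehand.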
IC50 [1],IC50 [2],IC50 [3],Structure (SMILES)
100 to 1000 nM,1000 to 10000 nM,1000 to 10000 nM,"CC(C)Nc1nc(Nc2cccc(S(=O)(=O)NC(C)(C)C)c2)nc(-c2ccccc2)n1 [Compound 342, N-tert-butyl-3-(4-(isopropylamino)-6-phenyl-1,3,5-triazin-2-ylamino)benzenesulfonamide]"
< 100 nM,100 to 1000 nM,100 to 1000 nM,"CC(C)Nc1nc(Nc2ccncc2)nc(-c2cccc(Cl)c2)n1 [Compound 185, 6-(3-chlorophenyl)-N^2-isopropyl-N^4-(pyridin-4-yl)-1,3,5-triazine-2,4-diamine]"
100 to 1000 nM,1000 to 10000 nM,1000 to 10000 nM,CC(C)Nc1nc(Nc2ccccc2)nc(-c2cccnc2)n1 [Compound 114]
100 to 1000 nM,< 100 nM,100 to 1000 nM,"Fc1cncc(Nc2nc(NC3[C@H]4COC[C@@H]34)nc(-c3ccccc3F)n2)c1 (stereo partly drawn) [Compound 638, 6-(2-Fluoro-phenyl)-N-(5-fluoro-pyridin-3-yl)-N′-(3-oxa-bicyclo[3.1.0]hex-6-yl)-[1,3,5]triazine-2,4-diamine]"
< 100 nM,< 100 nM,100 to 1000 nM,"CC(C)Nc1nc(Nc2cncc(C#N)c2)nc(-c2ccccc2)n1 [Compound 210, 5-(4-(isopropylamino)-6-phenyl-1,3,5-triazin-2-ylamino)nicotinonitrile]"
100 to 1000 nM,< 100 nM,< 100 nM,"CC(C)(C)CNc1nc(Nc2ccnc(C(F)(F)F)c2)nc(-c2cccc(N)n2)n1 [Compound 689, 6-(6-aminopyridin-2-yl)-N2-neopentyl-N4-(2-(trifluoromethyl)pyridin-4-yl)-1,3,5-triazine-2,4-diamine]"
100 to 1000 nM,1000 to 10000 nM,1000 to 10000 nM,CC(C)Nc1nc(Nc2ccccc2)nc(-c2ccccc2NS(C)(=O)=O)n1 [Compound 109]
100 to 1000 nM,100 to 1000 nM,1000 to 10000 nM,"CC(C)(O)CNc1nc(Nc2cncc(F)c2)nc(-c2ccccc2F)n1 [Compound 621, 1-(4-(2-fluorophenyl)-6-(5-fluoropyridin-3-ylamino)-1,3,5-triazin-2-ylamino)-2-methylpropan-2-ol]"
< 100 nM,100 to 1000 nM,1000 to 10000 nM,"COCCNc1nc(Nc2ccccc2)nc(-c2ccccc2)n1 [Compound 225, N^2-(2-methoxyethyl)-N^4,6-diphenyl-1,3,5-triazine-2,4-diamine]"
100 to 1000 nM,< 100 nM,< 100 nM,"CC(C)(C)Nc1nc(Nc2ccnc(C(F)(F)F)c2)nc(-c2cccc(N)n2)n1 [Compound 695, 6-(6-aminopyridin-2-yl)-N2-tert-butyl-N4-(2-(trifluoromethyl)pyridin-4-yl)-1,3,5-triazine-2,4-diamine]"
< 100 nM,100 to 1000 nM,1000 to 10000 nM,"FC(F)(F)CCNc1nc(Nc2ccncc2)nc(-c2ccccc2)n1 [Compound 263, 6-phenyl-N^2-(pyridin-4-yl)-N^4-(3,3,3-trifluoropropyl)-1,3,5-triazine-2,4-diamine]"
100 to 1000 nM,< 100 nM,< 100 nM,"CC(C)Nc1nc(Nc2ccnc(C(F)(F)F)c2)nc(-c2cc(O)ccc2F)n1 [Compound 634, 4-Fluoro-3-[4-isopropylamino-6-(2-trifluoromethyl-pyridin-4-ylamino)-[1,3,5]triazin-2-yl]-phenol]"
100 to 1000 nM,< 100 nM,< 100 nM,"CC(C)Nc1nc(Nc2ccnc(C(C)(C)O)c2)nc(-c2cccc(Cl)n2)n1 [Compound 514, 2-{4-[4-(6-Chloro-pyridin-2-yl)-6-isopropylamino-[1,3,5]triazin-2-ylamino]-pyridin-2-yl}-propan-2-ol]"
100 to 1000 nM,< 100 nM,< 100 nM,"CC(C)(C)Nc1nc(Nc2ccnc(C(C)(F)F)c2)nc(-c2cccc(C(C)(F)F)n2)n1 [Compound 596, N2-(tert-butyl)-6-(6-(1,1-difluoroethyl)pyridin-2-yl)-N4-(2-(1,1-difluoroethyl)pyridin-4-yl)-1,3,5-triazine-2,4-diamine]"
< 100 nM,< 100 nM,100 to 1000 nM,c1ccc(-c2nc(Nc3ccncc3)nc(NC3CCCC3)n2)cc1 [Compound 187]
1000 to 10000 nM,< 100 nM,100 to 1000 nM,"COC(=O)N1CCC(Nc2nc(Nc3ccnc(C(F)(F)F)c3)nc(-c3cccc(C(F)(F)F)n3)n2)CC1 [Compound 577, 4-[4-(6-Trifluoromethyl-pyridin-2-yl)-6-(2-trifluoromethyl-pyridin-4-ylamino)-[1,3,5]triazin-2-ylamino]-piperidine-1-carboxylic acid methyl ester]"
100 to 1000 nM,100 to 1000 nM,1000 to 10000 nM,"CC(=O)Nc1cccc(-c2nc(Nc3ccnc(C(F)(F)F)c3)nc(NC(C)C)n2)n1 [Compound 697, N-(6-(4-(isopropylamino)-6-(2-(trifluoromethyl)pyridin-4-ylamino)-1,3,5-triazin-2-yl)pyridin-2-yl)acetamide]"
100 to 1000 nM,< 100 nM,< 100 nM,"CC(Nc1nc(Nc2ccnc(C(F)(F)F)c2)nc(-c2cccc(N)n2)n1)C(F)(F)F (stereo not drawn) [Compound 694, 6-(6-aminopyridin-2-yl)-N2-(2-(trifluoromethyl)pyridin-4-yl)-N4-(1,1,1-trifluoropropan-2-yl)-1,3,5-triazine-2,4-diamine]"
100 to 1000 nM,< 100 nM,< 100 nM,"FC(F)(F)c1cc(Nc2nc(NCC3CC3)nc(-c3cccc(C(F)(F)F)n3)n2)ccn1 [Compound 597, N2-(cyclopropylmethyl)-6-(6-(trifluoromethyl)pyridin-2-yl)-N4-(2-(trifluoromethyl)pyridin-4-yl)-1,3,5-triazine-2,4-diamine]"
< 100 nM,100 to 1000 nM,100 to 1000 nM,"CCCNc1nc(Nc2ccncc2)nc(-c2ccccc2)n1 [Compound 249, 6-phenyl-N^2-propyl-N^4-(pyridin-4-yl)-1,3,5-triazine-2,4-diamine]"
< 100 nM,< 100 nM,100 to 1000 nM,"CC(C)Nc1nc(Nc2ccnc(C#N)c2)nc(-c2ccccc2)n1 [Compound 197, 4-(4-(isopropylamino)-6-phenyl-1,3,5-triazin-2-ylamino)picolinonitrile]"
100 to 1000 nM,< 100 nM,< 100 nM,"CC(F)(F)c1cccc(-c2nc(NCC3CC3)nc(Nc3cc(Cl)cc(S(C)(=O)=O)c3)n2)n1 [Compound 609, N2-(3-chloro-5-(methylsulfonyl)phenyl)-N4-(cyclopropylmethyl)-6-(6-(1,1-difluoroethyl)pyridin-2-yl)-1,3,5-triazine-2,4-diamine]"
< 100 nM,100 to 1000 nM,100 to 1000 nM,"c1ccc(-c2nc(NCC3CCC3)nc(Nc3ccncc3)n2)cc1 [Compound 250, N^2-(cyclobutylmethyl)-6-phenyl-N^4-(pyridin-4-yl)-1,3,5-triazine-2,4-diamine]"
< 100 nM,< 100 nM,100 to 1000 nM,"CC(C)(C)C(=O)Nc1nc(Nc2ccccc2)nc(-c2ccccc2)n1 [Compound 183, N-(4-phenyl-6-(phenylamino)-1,3,5-triazin-2-yl)pivalamide]"
100 to 1000 nM,100 to 1000 nM,1000 to 10000 nM,"OCCNc1nc(Nc2ccccc2)nc(-c2ccccc2)n1 [Compound 238, 2-(4-phenyl-6-(phenylamino)-1,3,5-triazin-2-ylamino)ethanol]"
100 to 1000 nM,< 100 nM,< 100 nM,"FC(F)(F)c1cc(Nc2nc(NC3CCOC3)nc(-c3cccc(C(F)(F)F)n3)n2)ccn1 (stereo not drawn) [Compound 529, N-(Tetrahydro-furan-3-yl)-N′-(2-trifluoromethyl-pyridin-4-yl)-6-(6-trifluoromethyl-pyridin-2-yl)-[1,3,5]triazine-2,4-diamine]"
100 to 1000 nM,< 100 nM,< 100 nM,"CC(C)Nc1nc(Nc2ccnc(CF)c2)nc(-c2cccc(C(F)(F)F)n2)n1 [Compound 676, N-(2-Fluoromethyl-pyridin-4-yl)-N′-isopropyl-6-(6-trifluoromethyl-pyridin-2-yl)-[1,3,5]triazine-2,4-diamine]"
100 to 1000 nM,< 100 nM,100 to 1000 nM,"Fc1ccc(Nc2nc(NC3[C@H]4COC[C@@H]34)nc(-c3ccccc3F)n2)cn1 (stereo partly drawn) [Compound 637, 6-(2-Fluoro-phenyl)-N-(6-fluoro-pyridin-3-yl)-N′-(3-oxa-bicyclo[3.1.0]hex-6-yl)-[1,3,5]triazine-2,4-diamine]"
